Test results from patent US8318792B2, “Therapeutic agent for amyotrophic lateral sclerosis” (Nippon Medical School Foundation, priority 2006, dated 2012).

System: G1H-G93A transgenic mice
Experiment: Clinical symptomatological evaluation (day of onset, survival period, disease period, stage periods)
Type: in vivo, mouse
Settings: for time periods for the respective stages in comparison to placebo group / disease period extending effect in comparison to placebo group / onset delaying effect in comparison to placebo group / survival period extending effect in comparison to placebo group: Mann-Whitney's U test; for disease period extending effect in comparison to placebo group / onset delaying effect in comparison to placebo group / survival period extending effect in comparison to placebo group: log-rank test; for day of onset / disease period / survival period / time period of clinical symptomatological stage 1 / time period of clinical symptomatological stage 2 / time period of clinical symptomatological stage 3 / time period of clinical symptomatological stage 4 / time period of clinical symptomatological stage 5: average±SD
Experimental: 1) The procedure of concentration adjustment, and the amount and the procedure of administration of the compound (a) were as described below. As a base, 0.5% methylcellulose is prepared. 5 mg of the compound (a) is pulverized in an agate mortar, and then a small amount of 0.5% methylcellulose is added to form a complete suspension. Subsequently, a small amount of 0.5% methylcellulose is added gradually, so that finally 5 mg of the compound (a) is suspended in 10 mL of 0.5% methylcellulose. A sample of 5 mg of compound (a)/10 mL of 0.5% methylcellulose (5 mg/10 mL) was prepared by the above-described procedure, and thus the compound (a) was orally administered once a day in a dose of 5 mg per kg of the mouse body weight (5 mg/kg).
As the experimental animal, male transgenic mice over-expressing a high copy number (25 copies) of mutated human SOD1 gene with a G93A point mutation, i.e., B6SJL-TgN [SOD1-G93A]1Gur (G1H-G93A transgenic mice, JR2726; Hemizygote) (Gurney M E, et al., Science, 264, 1772-1775, 1994), were purchased from Jackson Laboratory (Bar Harbor, USA) and used. At the same time, wild-type male mice from the same litter, B6SJL-TgN[SOD1-G93A]1Gur (Wild-type), were also purchased from Jackson Laboratory and used.
The mice were subjected to a clinical symptomatological evaluation everyday. The clinical symptomatological evaluation was performed from one week after the arrival from Jackson Laboratory. […] The day of onset, the survival period and the disease period were indicated by the number of days. In regard to the indication of the number of days of the disease period, one day (one disease day) corresponds to within 24 hours from the onset (the “onset” is determined by the observation of the clinical symptomatological evaluation stage 1), and two days (two disease days) corresponds to more than 24 hours after and within 48 hours from the onset. Subsequent disease days after the onset were determined in the same manner.
The mice were divided into seven experimental groups, to which a placebo, the compound (a), compound (b), compound (c) or allopurinol was administered. That is, the seven groups consist of: an experimental group administered with placebo; a treatment experimental group administered with compound (a) before onset; a treatment experimental group administered with compound (a) after onset; a treatment experimental group administered with compound (b) before onset; a treatment experimental group administered with compound (c) before onset; a treatment experimental group administered with compound (c) after onset; and a treatment group administered with allopurinol before onset. Details of the respective groups will be described in the following.
Ten G1H-G93A transgenic mice were used. From the 80th day after birth, 5 mg/kg of the compound (a) was orally administered everyday. […]
Ten G1H-G93A transgenic mice were used. From the 80th day after birth, 5 mg/kg of the compound (b) was orally administered everyday.
Ten G1H-G93A transgenic mice were used. From the 80th day after birth, 5 mg/kg of the compound (c) was orally administered everyday. […]
Ten G1H-G93A transgenic mice were used. From the 80th day after birth, 5 mg/kg of allopurinol was orally administered everyday.
In regard to the results of the clinical symptomatological evaluation, the day of onset, the survival period (days taken to show quadriplegia and to reach the moribund state), the disease period (days taken to show quadriplegia and to reach the moribund state, from the day of onset), and the time periods for the respective stages of the clinical symptomatological evaluation, were indicated by the average±standard deviation. In regard to the results of the exercise tolerance test, the score values of the respective exercise tolerance tests, including the extension reflex test, inclined plane test, footprint test, rotarod test and beam balance test, were indicated by the average±standard deviation. […]

[1] = 5 mg/kg oral daily from 80th day after birth (before onset)
[2] = 5 mg/kg oral once a day from 80th day after birth (before onset)
[3] = 5 mg/kg oral daily from the day of onset (after onset)
[4] = 5 mg/kg oral once a day from the onset (after onset)

| Compound | time periods for the respective stages in comparison to placebo group [1] | disease period extending effect in comparison to placebo group [1] | onset delaying effect in comparison to placebo group [1] | survival period extending effect in comparison to placebo group [1] | day of onset [2] [days] | disease period [2] [days] | survival period [2] [days] | time period of clinical symptomatological stage 1 [2] [days] | time period of clinical symptomatological stage 2 [2] [days] | time period of clinical symptomatological stage 3 [2] [days] | time period of clinical symptomatological stage 4 [2] [days] | time period of clinical symptomatological stage 5 [2] [days] | time periods for the respective stages in comparison to placebo group [3] | disease period extending effect in comparison to placebo group [3] | survival period extending effect in comparison to placebo group [3] | day of onset [4] [days] | disease period [4] [days] | survival period [4] [days] | time period of clinical symptomatological stage 1 [4] [days] | time period of clinical symptomatological stage 2 [4] [days] | other results |
| --- | --- | --- | --- | --- | --- | --- | --- | --- | --- | --- | --- | --- | --- | --- | --- | --- | --- | --- | --- | --- | --- |
| N#Cc1cc(-c2n[nH]c(-c3ccncc3)n2)ccn1 [compound (b), 4-(5-pyridin-4-yl-1H-[1,2,4]triazol-3-yl)pyridine-2-carbonitrile] | extended period of the respective stages with significant difference | significant extension of the disease period | significant delaying of the day of onset | significant extension of the survival period | 111.6 ± 3.7 | 24.3 ± 3.4 | 134.9 ± 3.4 | 7.4±0.7 | 6.4±1.2 | 5.3±1.2 | 3.5±0.5 | 1.7±0.5 |  |  |  |  |  |  |  |  |  |
| CC(C)(C)COc1ccc(-n2cc(C(=O)O)cn2)cc1C#N [compound (a), 1-[3-cyano-4-(2,2-dimethylpropoxy)phenyl]-1H-pyrazole-4-carboxylic acid] | extended period of respective stages with significant difference | significant extension of the disease period | significant delaying of the day of onset | significant extension of the survival period | 113.0 ± 4.8 | 24.9 ± 3.1 | 136.9 ± 3.8 | 7.5±0.7 | 6.6±1.2 | 5.4±1.1 | 3.6±0.7 | 1.8±0.4 | extended period of stage 3 (P<0.05, Mann-Whitney's U test) and stage 4 (P<0.05, Mann-Whitney's U test) with significant differences | significant extension of the disease period | significant extension of the survival period | 99.8 ± 2.4 | 23.9 ± 1.7 | 122.7 ± 2.1 | 7.3±0.7 | 6.0±0.7 | time period of clinical symptomatological stage 3 [4]: 5.3±0.9 days; time period of clinical symptomatological stage 4 [4]: 3.5±0.5 days; time period of clinical symptomatological stage 5 [4]: 1.8±0.4 days |
| Cc1nc(-c2ccc(OCC(C)C)c(C#N)c2)sc1C(=O)O [compound (c), 2-[3-cyano-4-(2-methylpropoxy)phenyl]-4-methyl-5-thiazolecarboxylic acid] | extended period of the respective stages with significant difference | significant extension of the disease period | significant delaying of the day of onset | significant extension of the survival period | 112.0 ± 4.6 | 25.4 ± 3.2 | 136.4 ± 3.3 | 7.5±0.9 | 6.7±1.2 | 5.4±1.1 | 3.9±1.1 | 1.9±0.3 | extended period of stage 3 (P<0.05, Mann-Whitney's U test) and stage 4 (P<0.05, Mann-Whitney's U test) with significant differences | disease period extending effect | survival period extending effect | 100.7 ± 4.3 | 24.2 ± 3.2 | 123.9 ± 3.2 | 7.6±1.2 | 6.2±0.8 | time period of clinical symptomatological stage 3 [4]: 5.4±1.1 days; time period of clinical symptomatological stage 4 [4]: 3.5±0.5 days; time period of clinical symptomatological stage 5 [4]: 1.5±0.5 days |
